The results in this text go back to patent US4195179A, “5-(Indol-3-ylmethylene)-1,3-dimethyl-2-methylamino-4-imidazolidinone” (Hoffmann-La Roche Inc., priority 1976, dated 1980).

One series in a line: acute toxicity (LD50). The conditions noted are these: mouse, in vivo.
Series [1] relates to tetrabenazine induced ptosis. Nature of the series: antagonism of tetrabenazine induced ptosis. The class given is in vivo. The conditions noted are these: Mus musculus, 1 h; oral, male mice; tetrabenazine methanesulfonate 100 mg/kg one hour after test compound; ptosis observed one hour later. Here is the method:
Groups of 10 mice each are administered tetrabenazine methanesulfonate at a dose of 100 mg/kg., one hour after oral administration of the test compound. One hour after tetrabenazine administration, each mouse is observed for the presence or absence of ptosis. An ED50 value for the antagonism of tetrabenazine induced ptosis is then determined.

`C#CCN(C)Cc1ccccc1` [pargyline]: the figures for the LD50 in the series “acute toxicity (LD50)” (ip) and in the series “acute toxicity (LD50)” (po) were 390 mg/kg and 720 mg/kg, respectively.
The matching figures for `COc1ccc2c3c([nH]c2c1)C(C)=NCC3` [harmaline]: 120 mg/kg and 380 mg/kg.
With `C/N=C1/N(C)C(=O)/C(=C\c2c[nH]c3ccccc23)N1C` [(E)-5-(indol-3-ylmethylene)-1,3-dimethyl-2-methylimino-4-imidazolidinone], the ED50 in series [1] is 5 mg/kg. Moreover, the values for the LD50 in the series “acute toxicity (LD50)” (ip) and in the series “acute toxicity (LD50)” (po) were 670 mg/kg and 900 mg/kg, respectively.

For orientation: LD50 means the dose expected to kill half of the subjects tested. A word on the ED50: it is the dose at which the effect has come halfway, by size or by number of responders. Low values mean greater potency, high ones weaker potency.
